# Test results reported in paper PMC8027839 (Scientific Reports, 2021).
# “Also recorded” adds a separate entry of the source. Where two headings read alike, the source gives them in different places.
# Experiments:
# [1] = biological target: T1, SapM (Mycobacterium tuberculosis, UniProt O53361); assay: biochemical; assay type: biochemical; settings: for remaining activity at 100 µM: 0.5 h, read-out: %SA (percentage specific activity of SapM); for inhibition at 100 µM: read-out: inhibition of SapM activity (reduction in SA)
# T1 construct: made in house; host or cells: Escherichia coli C41 (DE3)
# T1 sequence (O53361 44-299): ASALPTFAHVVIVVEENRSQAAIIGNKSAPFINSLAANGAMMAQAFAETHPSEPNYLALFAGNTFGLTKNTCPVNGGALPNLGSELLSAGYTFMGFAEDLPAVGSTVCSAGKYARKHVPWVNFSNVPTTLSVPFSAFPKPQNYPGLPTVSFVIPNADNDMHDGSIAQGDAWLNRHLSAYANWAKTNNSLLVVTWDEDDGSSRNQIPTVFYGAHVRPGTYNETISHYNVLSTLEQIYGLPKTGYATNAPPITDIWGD
# [2] = biological target: MptpA (Mycobacterium tuberculosis, UniProt P9WIA1); assay: biochemical; settings: pH 6
# [3] = biological target: MptpB (Mycobacterium tuberculosis, UniProt I6WXK4); assay: biochemical; settings: pH 6
# [4] = biological target: T2, PTP1B (Homo sapiens, UniProt P18031); assay: hPTP1B inhibition, pNPP assay; assay type: biochemical
# T2 sequence (P18031 1-435): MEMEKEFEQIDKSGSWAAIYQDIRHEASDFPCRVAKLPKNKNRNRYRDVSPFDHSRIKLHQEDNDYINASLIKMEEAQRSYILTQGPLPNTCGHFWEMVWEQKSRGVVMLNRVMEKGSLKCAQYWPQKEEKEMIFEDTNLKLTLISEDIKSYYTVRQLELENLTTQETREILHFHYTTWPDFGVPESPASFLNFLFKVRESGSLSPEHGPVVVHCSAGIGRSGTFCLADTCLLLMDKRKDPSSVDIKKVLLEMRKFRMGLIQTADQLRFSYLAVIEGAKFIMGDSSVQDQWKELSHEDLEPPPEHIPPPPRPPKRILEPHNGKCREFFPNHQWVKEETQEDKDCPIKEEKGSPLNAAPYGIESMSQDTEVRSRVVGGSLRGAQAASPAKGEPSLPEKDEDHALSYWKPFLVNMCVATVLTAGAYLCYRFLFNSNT
# [5] = biological target: VHR (Homo sapiens, UniProt P51452); assay: hVHR inhibition, pNPP assay; assay type: biochemical
# [6] = biological target: T1, SapM; assay: Type of inhibition of SapM, Lineweaver-Burk plots; assay type: biochemical
# Description: To determine the type of inhibition different inhibitor concentrations were selected to yield around 30% and 75% inhibition for each concentration of pNPP. This ensures sufficient signal to obtain accurate data while allowing a significant inhibition effect. Velocity (V) was plotted as a function of pNPP concentration and fit in a Lineweaver–Burk plot (double-reciprocal) using GraphPad Prism 8.41. All assays were done in 96-well microplates and performed in triplicate in at least two independent experiments.
# [7] = biological target: T1, SapM; assay: Microscale thermophoresis of SapM binding; settings: for EC50: MST titration
# Description: Microscale thermophoresis (MST) was used to study the direct binding interaction of SapM with three compounds 1, 2 and 13. SapM was labelled with NTA-647nm dye which attaches to the 6-histidine tag. 100 nM NTA-647 was incubated with 200 nM SapM for 1-hour at 4 °C and then centrifuged at 20,000 rcf for 20 minutes at 4 °C in 20 mM HEPES, 200 mM NaCl pH 7.0. 10 mM compound was diluted to 500 μM in the same buffer. Binding checks were carried out with labelled SapM (5 nM) with and without 250 nM compound with LED power of 20% and a medium MST power in a Monolith Pico instrument and using standard capillaries. Binding analysis was performed with a doubling serial dilution from 250 nM with 16 dilutions and a constant concentration of 5 nM labelled SapM.
# [8] = biological target: AcpA (Francisella tularensis subsp. novicida, UniProt A0Q436); assay: biochemical
# [9] = biological target: T1, SapM; parameters: method as in PMID 31312014; settings: previously reported; cited from earlier work
# [10] = tested on: Mtb H37Rv strain; assay: Mycobacterium tuberculosis infection assay in THP-1 macrophages; assay type: cell-based; settings: resting THP-1 macrophages; 1 µM and 40 µM; 24 h and 72 h post infection
# [11] = tested on: M. bovis BCG wild-type; assay type: cell-based; settings: Raw 264.7 macrophages; 40 µM; 72 h post-infection; vs DMSO
# [12] = tested on: M. bovis BCG ΔsapM; assay type: cell-based; settings: 40 µM
# [13] = Compound precipitation in enzyme assays; assay type: physicochemical; settings: SapM dose-response assay
# [14] = compounds at 100 µM, relative to pNPP DMSO control
# Chain of MptpB (I6WXK4 whole entry, looked up): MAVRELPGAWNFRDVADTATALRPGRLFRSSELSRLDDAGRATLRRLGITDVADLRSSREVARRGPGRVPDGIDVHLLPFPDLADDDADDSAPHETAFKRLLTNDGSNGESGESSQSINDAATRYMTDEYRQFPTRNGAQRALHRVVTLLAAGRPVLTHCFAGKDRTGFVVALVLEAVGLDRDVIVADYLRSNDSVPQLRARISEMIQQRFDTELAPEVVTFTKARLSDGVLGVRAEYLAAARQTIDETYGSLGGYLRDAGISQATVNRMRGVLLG
# Chain of MptpA (P9WIA1 whole entry): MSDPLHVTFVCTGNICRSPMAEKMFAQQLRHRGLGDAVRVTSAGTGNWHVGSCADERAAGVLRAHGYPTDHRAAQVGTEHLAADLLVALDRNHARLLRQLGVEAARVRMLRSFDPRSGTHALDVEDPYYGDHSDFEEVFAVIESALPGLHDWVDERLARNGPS
# Chain of VHR (P51452 whole entry): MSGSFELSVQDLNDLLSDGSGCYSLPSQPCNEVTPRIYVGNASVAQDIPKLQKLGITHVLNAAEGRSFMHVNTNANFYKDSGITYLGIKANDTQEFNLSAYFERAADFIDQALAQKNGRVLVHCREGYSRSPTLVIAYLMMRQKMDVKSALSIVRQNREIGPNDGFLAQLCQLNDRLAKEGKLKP
# Chain of AcpA (A0Q436 21-514 limits assumed): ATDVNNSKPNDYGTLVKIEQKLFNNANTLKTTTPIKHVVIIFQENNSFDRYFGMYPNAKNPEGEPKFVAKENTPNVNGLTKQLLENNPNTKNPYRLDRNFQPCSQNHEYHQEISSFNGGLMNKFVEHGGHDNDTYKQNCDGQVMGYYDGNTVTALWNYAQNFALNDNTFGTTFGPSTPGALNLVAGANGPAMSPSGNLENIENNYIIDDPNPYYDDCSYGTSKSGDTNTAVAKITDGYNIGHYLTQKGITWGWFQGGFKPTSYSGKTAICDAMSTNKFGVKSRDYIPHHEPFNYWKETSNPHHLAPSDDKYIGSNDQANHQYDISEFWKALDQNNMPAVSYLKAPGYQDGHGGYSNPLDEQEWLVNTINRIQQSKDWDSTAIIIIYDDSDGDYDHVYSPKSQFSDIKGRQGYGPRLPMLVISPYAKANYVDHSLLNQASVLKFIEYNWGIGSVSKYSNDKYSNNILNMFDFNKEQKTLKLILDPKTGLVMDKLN
compound,measurement,setting,value
"N#CC(C#N)=Cc1ccc(O)cc1 [Compound 12, Tyrphostin 8]",%SA (percentage specific activity of SapM),[1],104.2 ± 4.2%
same,inhibition of SapM activity (reduction in SA),[1]; 100 µM,less than 21%
"N#CC(C#N)=C(N)/C(C#N)=C/c1cc(O)c(O)c(O)c1 [Compound 13, Tyrphostin AG 183]",effect on SapM enzyme activity,[1]; compounds at 100 µM,completely abolished enzyme activity; also recorded: abolished enzyme activity completely
same,%SA (percentage specific activity of SapM),[1]; [14],0%
same,IC50,"[1]; pNPP assay, dose-response",8.2 ± 1 µM
same,IC50,[2]; pNPP assay,16.7 ± 1 µM
same,IC50,[3]; pNPP assay,> 100 µM
same,IC50,"[4]; pNPP assay, pH 5.5, read-out: IC50 PTP1B",> 100 µM
same,IC50,"[5]; pNPP assay, pH 5.5, read-out: IC50 VHR",> 100 µM
same,mechanism of inhibition of SapM,[6],uncompetitive inhibitors
same,binding to SapM by MST,[7],confirmed
same,EC50,"[7]; Bivalent fit EC50 (1), tighter binding mode",0.59 µM
"O=[N+]([O-])c1ccc(Oc2ccc(Br)cc2)c(C(O)P(=O)(O)O)c1 (centres unmarked) [Compound 6, RWJ-60475]",%SA (percentage specific activity of SapM),[1],46.6 ± 0.9%
same,IC50,[1],41.9 ± 1.1 µM
same,IC50,[2],> 100 µM
same,IC50,[3],> 100 µM
"N[C@H](C(=O)O)[C@H](O)c1ccc(O)c(O)c1 [Compound 27, L-DOPS]",remaining activity at 100 µM,[1]; [14],85.9 ± 4.2%
"C[C@H](O)[C@H](O)[C@H]1CNc2[nH]c(N)nc(=O)c2N1.Cl.Cl [Compound 5, (6R)-BH4, reference compound]",%SA (percentage specific activity of SapM),[1]; [14],33.3 ± 0.3%
same,IC50,"[1]; pNPP assay, dose-response",73.9 ± 1.2 µM
"O=C1O[C@H]([C@@H](O)CO)C(O)=C1OP(=O)(O)O [Compound 2P-AC, 2-phospho-L-ascorbic acid]",IC50,[8],116 ± 1.02 µM
same,IC50,[9],> 200 µM
"N#CC(=Cc1ccc2[nH]ccc2c1)C(N)=C(C#N)C#N [Compound 18, Tyrphostin AG 370]",%SA (percentage specific activity of SapM),[1]; [14],94.6 ± 3.1%
"Oc1cc(O)c2c(c1)O[C@H](c1ccc(O)c(O)c1)[C@@H](O)C2 [Compound 33, (+)-Catechin]",%SA (percentage specific activity of SapM),[1]; [14],95.9 ± 12.3%
"Oc1cc(O)c2c(c1)O[C@H](c1ccc(O)c(O)c1)[C@H](O)C2 [Compound 32, (−)-Epicatechin]",remaining activity at 100 µM,[1]; [14],97.9 ± 7.2%
"N#C/C(=C\c1ccc(O)c(O)c1)C(=O)c1ccc(O)c(O)c1 [Compound 11, Tyrphostin AG 538]",%SA (percentage specific activity of SapM),[1]; [14],100.2 ± 0.3%
"O=C(O)c1cc(O)c(O)c(O)c1 [Compound 29, Gallic acid]",remaining activity at 100 µM,[1]; [14],30.7 ± 3.6%
same,inhibition at 100 µM,[1]; compounds at 100 µM,~70%
same,IC50,"[1]; pNPP assay, dose-response",63 ± 1.5 µM
same,IC50,[2]; pNPP assay,> 100 µM
same,IC50,[3]; pNPP assay,> 100 µM
"N#C/C(=C\c1ccc(O)c(O)c1)C(N)=O [Compound 16, Tyrphostin AG 99]",%SA (percentage specific activity of SapM),[1]; [14],58.3 ± 0.6%
"Oc1cc(O)c2c(c1)O[C@H](c1ccc(O)c(O)c1)[C@H](O)[C@H]2c1c(O)cc(O)c2c1O[C@H](c1ccc(O)c(O)c1)[C@H](O)C2 [Compound 31, Procyanidin B2]",remaining activity at 100 µM,[1]; [14],100 ± 14.5%
"N#CC(C#N)=C(N)/C(C#N)=C/c1ccc(O)cc1 [Compound 9, Tyrphostin AG 112]",inhibition of SapM activity (reduction in SA),[1]; compounds at 100 µM,less than 21%
same,%SA (percentage specific activity of SapM),[1]; [14],88.7 ± 1.7%
"CC(C)(C)c1cc(/C=C(\C#N)C(N)=S)cc(C(C)(C)C)c1O [Compound 8, Tyrphostin AG 879]",remaining activity at 100 µM,[1]; [14],78.7 ± 6.6%
same,inhibition at 100 µM,[1]; compounds at 100 µM,< 21%
"O.O.O=c1c(O)c(-c2ccc(O)c(O)c2)oc2cc(O)cc(O)c12 [Compound 28, Quercetin dehydrate]",effect on SapM enzyme activity,[1]; compounds at 100 µM,none or poor activity
same,%SA (percentage specific activity of SapM),[1]; [14],78.9 ± 9.2%
"Oc1cc(O)c2c(c1)O[C@@H](c1cc(O)c(O)c(O)c1)[C@H](O)C2 [Compound 30, (−)-Gallocatechin]",remaining activity at 100 µM,[1]; [14],60.4 ± 6.4%
same,inhibition at 100 µM,[1]; compounds at 100 µM,~40%
"CCCCCCCCCCCC(=O)c1c(O)c(C(=O)CCCCCCCCCCC)c(O)c(C2CC(c3ccc(O)cc3)Oc3cc(O)ccc32)c1O (centres unmarked) [Compound 3, YM-26734]",%SA (percentage specific activity of SapM),[1],0%
same,IC50,[1],19.8 ± 1.1 µM
same,effect on SapM enzyme activity,[1],completely abolished the enzymatic activity
same,IC50,[2],> 100 µM
same,IC50,[3],> 100 µM
"N#CC(C#N)=Cc1cc(O)c(O)c(O)c1 [Compound 14, Tyrphostin AG 82]",remaining activity at 100 µM,[1]; [14],0%
same,effect on SapM enzyme activity,[1]; compounds at 100 µM,completely abolished enzyme activity; also recorded: abolished enzyme activity completely
same,IC50,"[1]; pNPP assay, dose-response",14.5 ± 1 µM
same,IC50,[2]; pNPP assay,23.7 ± 1.1 µM
same,IC50,[3]; pNPP assay,> 100 µM
same,mechanism of inhibition of SapM,[6],uncompetitive inhibitors
"O=c1c(-c2ccc(O)cc2)coc2cc(O)ccc12 [Compound 23, Daidzein]",remaining activity at 100 µM,[1]; [14],108 ± 17.2%
"O=c1oc2c(cc1O)oc(=O)c1cc(O)c(O)c(O)c12 [Compound 2, Galloflavin]",remaining activity at 100 µM,[1]; [14],0%
same,effect on SapM enzyme activity,[1]; compounds at 100 µM,completely abolished the enzymatic activity; also recorded: inhibits SapM activity completely
same,IC50,"[1]; pNPP assay, dose-response",9.3 ± 1.1 µM
same,IC50,[2]; pNPP assay,55.2 ± 1.1 µM
same,IC50,[3]; pNPP assay,> 100 µM
same,IC50,[4],> 100 µM
same,IC50,[5],> 100 µM
same,mechanism of inhibition of SapM,[6],uncompetitive inhibitors
same,Mtb intracellular burden vs DMSO control,[10],significant (****p < 0.0001) reduction
same,binding to SapM by MST,[7],confirmed
same,EC50,[7]; read-out: Single species dose response EC50,32 ± 16 µM
same,intracellular burden of wild-type M. bovis BCG,[11],reduced the intracellular burden
same,intracellular burden of ΔsapM,[12],did not further reduce the intracellular burden
"N#Cc1c2nc3ccccc3nc2n2ccc(NC(=O)c3cccs3)cc12 [Compound 4, HI-TOPK-32]",%SA (percentage specific activity of SapM),[1],20.5 ± 3.7%
same,concentration at which compound precipitates,[13],> 100 µM
"N#CC(C#N)=Cc1ccc(O)c(O)c1 [Compound 7, Tyrphostin 23]",remaining activity at 100 µM,[1]; [14],73.5 ± 3.1%
same,inhibition at 100 µM,[1]; compounds at 100 µM,30 to 50%
"O=c1c(O)c(-c2cc(O)c(O)c(O)c2)oc2cc(O)cc(O)c12 [Compound 26, Myricetin]",remaining activity at 100 µM,[1]; [14],84 ± 6.2%
same,effect on SapM enzyme activity,[1]; compounds at 100 µM,none or poor activity
"O=c1c(-c2ccc(O)cc2)coc2cc(O)cc(O)c12 [Compound 24, Genistein]",remaining activity at 100 µM,[1]; [14],84.1 ± 6.4%
"Cc1cc(O)c2c(c1)C(=O)c1cc(O)cc(O)c1C2=O [Compound 25, Emodin]",remaining activity at 100 µM,[1]; [14],68.6 ± 7.2%
same,inhibition at 100 µM,[1]; compounds at 100 µM,~30%
"O=c1cc(-c2ccc(O)cc2)oc2cc(O)cc(O)c12 [Compound 22, Apigenin]",remaining activity at 100 µM,[1]; [14],103 ± 1.1%
"O=C1O[C@H]([C@@H](O)CO)C(O)=C1O [L-AC, L-ascorbic acid]",IC50,[9],> 200 µM
"N#CC(C#N)=Cc1ccc([N+](=O)[O-])c(O)c1 [Compound 19, Tyrphostin AG 126]",%SA (percentage specific activity of SapM),[1]; [14],99.0 ± 5.5%
Tyrphostin AG 974 [Compound 17],%SA (percentage specific activity of SapM),[1]; [14],71.9 ± 1.4%
Tyrphostin AG 114 [Compound 15],%SA (percentage specific activity of SapM),[1]; [14],48.6 ± 1.1%
same,IC50,"[1]; pNPP assay, dose-response",78.4 ± 2.7 µM
"NC(Cc1cc(O)c(O)cc1O)C(=O)O (racemic) [Compound 20, 6-Hydroxy-DL-DOPA]",inhibition of SapM activity (reduction in SA),[1]; compounds at 100 µM,~ 30%
same,%SA (percentage specific activity of SapM),[1]; [14],71.7 ± 3.4%
"CC(C)=CC[C@@H](O)C1=CC(=O)c2c(O)ccc(O)c2C1=O [Compound 21, Shikonin]",remaining activity at 100 µM,[1]; [14],88.9 ± 4.3%
